According to US7105664B2, “5-Halogen-6-phenyl-7-fluoroalkylamino-triazolopyrimidines as fungicides” (BASF Aktiengesellschaft, priority 2001, dated 2006):

Tests used:
Pyricularia oryzae = type: in vivo; conditions: 200 ppm, rice seedlings variety Tai-Nong 67, protective; untreated plants infected to 90%
[1] = test system: Blumeria graminis f. sp. tritici; assay: Control of powdery mildew on wheat, Comparison Trial 2; type: in vivo; conditions: wheat variety Kanzler, untreated plants infected to 100%

Row | SMILES | infection (% diseased leaf area) (Pyricularia oryzae) [%] | infection (% diseased leaf area) ([1]; 50 ppm) [%] | infection (% diseased leaf area) ([1]; 200 ppm) [%]
1 | Fc1cc(F)c(-c2c(Cl)nc3ncnn3c2NCC(F)(F)F)c(F)c1 [A] | 60 |  | 
2 | Fc1cccc(Cl)c1-c1c(Cl)nc2ncnn2c1NCC(F)(F)F [B] | 10 |  | 
3 | CC(Nc1c(-c2c(F)cccc2F)c(Cl)nc2ncnn12)C(F)(F)F (stereo not drawn) [C] | 20 |  | 
4 | COc1cc(F)c(-c2c(Cl)nc3ncnn3c2NCC(F)(F)F)c(F)c1 [D] |  | 80 | 60
5 | COc1cc(F)c(-c2c(Cl)nc3ncnn3c2NC(C)C(F)(F)F)c(F)c1 (stereo not drawn) [E] |  | 80 | 80
6 | Fc1cc(F)c(-c2c(Cl)nc3ncnn3c2NCC(F)C(F)(F)F)c(F)c1 (stereo not drawn) [I-1] | 3 |  | 
7 | FC(F)=C(F)CCNc1c(-c2c(F)cc(F)cc2F)c(Cl)nc2ncnn12 [I-2] | 3 |  | 
8 | CC(CNc1c(-c2c(F)cc(F)cc2F)c(Cl)nc2ncnn12)CC(F)(F)F (stereo not drawn) [I-3] | 3 |  | 
9 | COc1cc(F)c(-c2c(Cl)nc3ncnn3c2NCCC(F)(F)F)c(F)c1 [I-7] |  | 7 | 3
